Assay results as given in ChEMBL document CHEMBL5136973, “Update on the Development of MNK Inhibitors as Therapeutic Agents” (J Med Chem, 2022).
One block for each compound: values may come before it.

Columns and labels:
[1] = biological target: T1, MAP kinase-interacting serine/threonine-protein kinase 1 (Homo sapiens, UniProt Q9BUB5); experiment: Inhibition of Mnk1 (unknown origin)
[2] = biological target: T2, MAP kinase-interacting serine/threonine-protein kinase 2 (Homo sapiens, UniProt Q9HBH9); experiment: Inhibition of Mnk2 (unknown origin)
Target sequence in this assay (Q9HBH9 whole entry): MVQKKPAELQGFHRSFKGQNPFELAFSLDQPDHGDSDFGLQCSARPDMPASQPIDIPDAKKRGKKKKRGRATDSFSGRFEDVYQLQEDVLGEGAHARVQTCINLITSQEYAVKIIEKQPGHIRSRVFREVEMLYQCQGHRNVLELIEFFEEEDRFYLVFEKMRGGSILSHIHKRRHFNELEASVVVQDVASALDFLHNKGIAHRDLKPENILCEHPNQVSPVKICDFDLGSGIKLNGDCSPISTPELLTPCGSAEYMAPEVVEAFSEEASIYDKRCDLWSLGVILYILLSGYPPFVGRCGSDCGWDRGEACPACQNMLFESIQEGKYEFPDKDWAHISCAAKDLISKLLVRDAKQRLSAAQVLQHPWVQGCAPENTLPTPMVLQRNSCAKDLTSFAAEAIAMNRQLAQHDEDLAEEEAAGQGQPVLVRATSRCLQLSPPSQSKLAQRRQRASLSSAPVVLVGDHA

[3] = biological target: T2, MAP kinase-interacting serine/threonine-protein kinase 2; experiment: Inhibition of Mnk2 (unknown origin) by ADP-Glo assay
Target sequence in this assay (Q9HBH9 whole entry): as above

[4] = biological target: T1, MAP kinase-interacting serine/threonine-protein kinase 1; experiment: Inhibition of Mnk1 (unknown origin) by ADP-Glo assay
[5] = Intermediate elimination half life in female NMRI-nu/nu mouse; type: ADME; conditions: in vivo, read-out: beta t1/2 (converted)
[6] = Intermediate elimination half life in male RH:Foxn1 nude rat; type: ADME; conditions: in vivo, read-out: beta t1/2 (converted)
[7] = Volume of distribution at steady state in male RH:Foxn1 nude rat; type: ADME; conditions: in vivo, read-out: Vdss
[8] = Clearance in male RH:Foxn1 nude rat; type: ADME; conditions: in vivo
[9] = Clearance in female NMRI-nu/nu mouse; type: ADME; conditions: in vivo
[10] = Oral bioavailability in male RH:Foxn1 nude rat; type: ADME, organism-based; conditions: in vivo
[11] = Antitumor activity against human Lu7462 patient-derived NSCLC cells xenografted in female NMRI-nu/nu mouse assessed as T/C ratio at 200 mg/kg, po, qd for 94 days; type: functional; conditions: time 94 day
[12] = Volume of distribution at steady state in female NMRI-nu/nu mouse; type: ADME; conditions: in vivo, read-out: Vdss
[13] = Oral bioavailability in female NMRI-nu/nu mouse; type: ADME, organism-based; conditions: in vivo
[14] = biological target: T2, MAP kinase-interacting serine/threonine-protein kinase 2; experiment: Binding affinity to Mnk2 (unknown origin)
Target sequence in this assay (Q9HBH9 whole entry): as above

MV4-11 [15] = experiment: Growth inhibition of human MV4-11 cells measured after 72 hrs; type: functional
[16] = biological target: T1, MAP kinase-interacting serine/threonine-protein kinase 1; experiment: Binding affinity to Mnk1 (unknown origin)
[17] = biological target: T2, MAP kinase-interacting serine/threonine-protein kinase 2; experiment: Binding affinity to His-tagged Mnk2 (unknown origin) using D 202 TATKSGSTTKNR 214 as substrate by TR-FRET assay
Target sequence in this assay (Q9HBH9 whole entry): as above

[18] = Growth inhibition of human Acute myeloid leukemic cells incubated for 72 hrs by multilabel plate reader method; type: functional; conditions: Acute myeloid leukemic cell
MV4-11 [19] = experiment: Growth inhibition of human MV4-11 cells incubated for 72 hrs by multilabel plate reader method; type: functional
PC-3 = experiment: Antiproliferative activity against human PC-3 cells; type: functional
MOLM-13 = experiment: Antiproliferative activity against human MOLM-13 cells; type: functional
A2780 = experiment: Antiproliferative activity against human A2780 cells; type: functional
SK-OV-3 = experiment: Antiproliferative activity against human SK-OV-3 cells; type: functional
[20] = biological target: T1, MAP kinase-interacting serine/threonine-protein kinase 1; experiment: Inhibition of inactive form of MNK1 (unknown origin)
[21] = biological target: T2, MAP kinase-interacting serine/threonine-protein kinase 2; experiment: Inhibition of FLAG-tagged Mnk2 (unknown origin) transfected into HEK293 cells incubated for 30 mins followed by ATP addition measured after 30 mins by Western blotting analysis; type: cell-based
Target sequence in this assay (Q9HBH9 whole entry): as above

[22] = biological target: Tyrosine-protein kinase BTK (Homo sapiens, UniProt Q06187); experiment: Inhibition of FLAG-tagged BTK (unknown origin) transfected into HEK293T cells incubated for 30 mins followed by ATP addition measured after 20 mins by Western blotting analysis; type: cell-based, HEK293
[23] = biological target: T3, Tyrosine-protein kinase JAK3 (Homo sapiens, UniProt P52333); experiment: Inhibition of JAK3 (unknown origin)
T3 sequence (P52333 whole entry): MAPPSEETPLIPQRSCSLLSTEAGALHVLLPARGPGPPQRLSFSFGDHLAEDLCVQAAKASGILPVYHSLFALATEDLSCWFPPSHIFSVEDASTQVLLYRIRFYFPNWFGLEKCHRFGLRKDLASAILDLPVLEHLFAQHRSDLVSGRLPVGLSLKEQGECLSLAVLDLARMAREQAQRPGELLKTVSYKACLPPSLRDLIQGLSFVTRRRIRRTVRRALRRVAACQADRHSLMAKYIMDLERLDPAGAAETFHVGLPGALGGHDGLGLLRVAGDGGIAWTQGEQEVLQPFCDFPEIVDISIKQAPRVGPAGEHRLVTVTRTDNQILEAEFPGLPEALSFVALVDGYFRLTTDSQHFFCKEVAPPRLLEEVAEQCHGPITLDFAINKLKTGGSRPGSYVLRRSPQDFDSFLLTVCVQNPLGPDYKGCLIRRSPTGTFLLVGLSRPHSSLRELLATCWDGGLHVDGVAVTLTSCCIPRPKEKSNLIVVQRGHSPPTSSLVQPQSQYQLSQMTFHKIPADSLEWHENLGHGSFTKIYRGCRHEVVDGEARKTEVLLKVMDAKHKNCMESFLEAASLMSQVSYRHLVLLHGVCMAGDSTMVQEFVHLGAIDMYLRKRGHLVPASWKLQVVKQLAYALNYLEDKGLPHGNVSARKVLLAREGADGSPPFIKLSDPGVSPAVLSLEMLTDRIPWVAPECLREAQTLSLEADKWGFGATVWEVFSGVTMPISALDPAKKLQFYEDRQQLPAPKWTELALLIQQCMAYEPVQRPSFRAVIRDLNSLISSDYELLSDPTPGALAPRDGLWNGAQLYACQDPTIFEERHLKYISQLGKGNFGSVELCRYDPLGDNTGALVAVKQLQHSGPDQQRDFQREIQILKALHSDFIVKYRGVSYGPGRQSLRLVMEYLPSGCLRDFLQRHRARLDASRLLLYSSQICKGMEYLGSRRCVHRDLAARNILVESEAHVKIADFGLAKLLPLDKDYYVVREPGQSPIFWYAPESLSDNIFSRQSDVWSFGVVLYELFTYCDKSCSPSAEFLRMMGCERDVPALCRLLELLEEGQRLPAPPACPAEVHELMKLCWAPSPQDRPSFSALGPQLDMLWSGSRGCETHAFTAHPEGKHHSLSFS

[24] = biological target: T1, MAP kinase-interacting serine/threonine-protein kinase 1; experiment: Inhibition of FLAG-tagged Mnk1 (unknown origin) transfected into HEK293 cells incubated for 30 mins followed by ATP addition measured after 30 mins by Western blotting analysis; type: cell-based
[25] = biological target: T1, MAP kinase-interacting serine/threonine-protein kinase 1; experiment: Inhibition of Mnk1 (unknown origin) using eIF4E-derived (D 202 TATKSGSTTKNR 214) peptide as substrate incubated for 90 mins by IMAP TR-FRET assay
[26] = biological target: T2, MAP kinase-interacting serine/threonine-protein kinase 2; experiment: Inhibition of His-tagged Mnk2 (unknown origin) using eIF4E-derived (D 202 TATKSGSTTKNR 214) peptide as substrate incubated for 90 mins by IMAP TR-FRET assay
Target sequence in this assay (Q9HBH9 whole entry): as the sequence (Q9HBH9 whole entry) above

[27] = biological target: T2, MAP kinase-interacting serine/threonine-protein kinase 2; experiment: Inhibition of MNK2 (unknown origin) at 123 nM
Target sequence in this assay (Q9HBH9 whole entry, looked up): as the sequence (Q9HBH9 whole entry) above

MV4-11 [28] = experiment: Induction of cell cycle arrest in human MV4-11 cells assessed as increase in sub G1/G2 DNA content at 20 uM (reference value: 64%); type: functional

T1 sequence (Q9BUB5 whole entry): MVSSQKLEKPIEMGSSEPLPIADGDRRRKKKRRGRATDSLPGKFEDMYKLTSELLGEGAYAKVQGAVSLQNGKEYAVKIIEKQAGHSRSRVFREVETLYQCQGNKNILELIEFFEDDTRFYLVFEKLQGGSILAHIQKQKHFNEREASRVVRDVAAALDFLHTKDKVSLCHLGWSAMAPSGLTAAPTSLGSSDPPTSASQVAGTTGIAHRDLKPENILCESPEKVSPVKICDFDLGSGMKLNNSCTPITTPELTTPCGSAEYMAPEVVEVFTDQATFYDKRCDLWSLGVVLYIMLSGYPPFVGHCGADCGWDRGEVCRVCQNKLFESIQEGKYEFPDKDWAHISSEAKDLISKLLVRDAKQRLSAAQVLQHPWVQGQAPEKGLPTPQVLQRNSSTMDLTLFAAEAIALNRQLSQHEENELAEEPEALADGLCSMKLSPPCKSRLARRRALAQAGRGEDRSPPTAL
Sequence of Tyrosine-protein kinase BTK (Q06187 whole entry): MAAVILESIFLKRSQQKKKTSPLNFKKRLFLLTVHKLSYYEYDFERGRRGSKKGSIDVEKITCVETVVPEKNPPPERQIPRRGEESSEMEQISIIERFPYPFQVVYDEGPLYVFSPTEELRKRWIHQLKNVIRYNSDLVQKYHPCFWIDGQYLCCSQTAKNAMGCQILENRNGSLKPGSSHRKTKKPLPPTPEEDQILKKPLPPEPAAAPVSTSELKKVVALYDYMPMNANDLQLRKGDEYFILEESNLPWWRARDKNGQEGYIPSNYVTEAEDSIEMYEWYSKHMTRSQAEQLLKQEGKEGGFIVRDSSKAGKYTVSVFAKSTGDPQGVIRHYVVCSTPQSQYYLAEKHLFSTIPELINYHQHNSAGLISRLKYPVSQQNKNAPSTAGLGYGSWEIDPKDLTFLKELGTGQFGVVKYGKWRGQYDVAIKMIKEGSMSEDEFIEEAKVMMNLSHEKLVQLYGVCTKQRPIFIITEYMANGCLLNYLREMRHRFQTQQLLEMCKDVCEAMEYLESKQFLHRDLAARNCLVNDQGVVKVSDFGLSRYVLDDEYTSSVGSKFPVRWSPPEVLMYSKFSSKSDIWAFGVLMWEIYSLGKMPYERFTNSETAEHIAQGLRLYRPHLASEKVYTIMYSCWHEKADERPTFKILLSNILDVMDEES

Structure (SMILES): CN(C)CCCNC(=O)c1nc2c(N3CCc4ccccc43)ncnc2s1
IC50 ([1]; read-out: pIC50 (converted)): 10 nM
IC50 [2]: 7.94 nM

Structure (SMILES): CN(Cc1ccon1)Cc1cc(-c2ccnc3cc(Cl)ccc23)ccc1O
IC50 [3]: 2600 nM
IC50 [4]: 4700 nM

Structure (SMILES): Cn1ccc2ncnc(Nc3ccc(F)cc3O[C@@H]3CCCOC3)c21
IC50 ([1]; read-out: pIC50 (converted)): 63.1 nM
IC50 [2]: 31.6 nM

Structure (SMILES): C[C@H](CN)Oc1ccc2ncc(-c3cc4ccccc4o3)n2n1
half-life [5]: 1.2 h
half-life [6]: 1.2 h
Vd [7]: 0.87 L/kg
clearance [8]: 6.83 mL/min/kg
clearance [9]: 39 mL/min/kg
bioavailability [10]: 78%
T/C [11]: 0.33
Vd [12]: 6 L/kg
bioavailability [13]: 71%

Structure (SMILES): CC(C)Oc1cc(F)ccc1Nc1ncnc2cc(C(=O)NCCCN(C)C)n(C)c12
IC50 ([1]; read-out: pIC50 (converted)): 50.1 nM
IC50 [2]: 39.8 nM

Structure (SMILES): CN(C)CCCNC(=O)c1nc2c(N3CC(C)(C)c4ccccc43)ncnc2s1
IC50 ([1]; read-out: pIC50 (converted)): 6.31 nM
IC50 [2]: 3.98 nM

Structure (SMILES): Cn1ccc2ncnc(Nc3ccc(F)cc3OC3CCCC3)c21
IC50 ([1]; read-out: pIC50 (converted)): 126 nM
IC50 [2]: 31.6 nM

Structure (SMILES): Cn1ccc2ncnc(Nc3ccc(F)cc3OC(CF)CF)c21
IC50 ([1]; read-out: pIC50 (converted)): 158 nM
IC50 [2]: 50.1 nM

Structure (SMILES): CN1CCC(C(=O)Nc2ncc(-c3ccccc3)s2)CC1
IC50 [20]: 21 nM

Structure (SMILES): C=CC(=O)Nc1cc(-n2c(=O)ccc3cnc4ccc(-c5cn[nH]c5)cc4c32)ccc1C
IC50 [21]: 26 nM
IC50 [22]: 9.4 nM
IC50 [23]: 55.7 nM
IC50 [24]: 107 nM

Structure (SMILES): Fc1ccc2c(c1)CCN2c1ncnc2cc[nH]c12
IC50 ([1]; read-out: pIC50 (converted)): 39.8 nM
IC50 [2]: 31.6 nM

Structure (SMILES): Cc1ccc(C(=O)Nc2ccc(CN3CCN(C)CC3)c(C(F)(F)F)c2)cc1C#Cc1cnc2cccnn12
inhibition [27]: 32%

Structure (SMILES): CC(C)Oc1cc(C#N)ccc1Nc1ncnc2ccn(C)c12
IC50 ([1]; read-out: pIC50 (converted)): 50.1 nM
IC50 [2]: 25.1 nM

Structure (SMILES): Nc1cccc2c1cnn2-c1ncnc2[nH]ccc12
Activity (MV4-11 [28]): 92%

Structure (SMILES): CC(C)Oc1cc(F)ccc1Nc1ncnc2cc(C(=O)NCC3CCNCC3)n(C)c12
IC50 ([1]; read-out: pIC50 (converted)): 39.8 nM
IC50 [2]: 39.8 nM

Second part, led by results:

IC50 ([1]; read-out: pIC50 (converted)): 5.01 nM
IC50 [2]: 3.98 nM
Structure (SMILES): O=C(NCC1CCNCC1)c1nc2c(N3CCc4cc(F)ccc43)ncnc2s1

IC50 [1]: 104 nM
Structure (SMILES): COc1cc(N=S2(=O)CCC2)cc2ncnc(Nc3cccnc3O[C@H]3COC[C@H]3O)c12

Ki [14]: 430 nM
GI50 (MV4-11 [15]): 8190 nM
Ki [16]: 1080 nM
Structure (SMILES): Fc1ccc(Nc2ncnc3[nH]ccc23)nc1

Ki [17]: 120 nM
GI50 (MV4-11 [19]): 780 nM
Structure (SMILES): Cc1c(-c2ccnc(Nc3ccccc3OC(F)F)n2)sc(=O)n1C
GI50 [18]: 880 nM

IC50 [1]: 18 nM
Structure (SMILES): O=S1(=Nc2cc(Cl)c3c(Nc4ccc(F)cc4O[C@H]4COC[C@@H]4O)ncnc3c2)CCC1

IC50 ([1]; read-out: pIC50 (converted)): 50.1 nM
IC50 [2]: 50.1 nM
Structure (SMILES): CC(C)Oc1cc(F)ccc1Nc1ncnc2sc(C(=O)NCC3CCNCC3)nc12

IC50 [1]: 45 nM
Structure (SMILES): CO[C@@H]1COC[C@@H]1Oc1cc(F)ccc1Nc1ncnc2cc(N=S3(=O)CCCC3)cc(Cl)c12

IC50 ([1]; read-out: pIC50 (converted)): 50.1 nM
IC50 [2]: 31.6 nM
Structure (SMILES): CC(C)Oc1cc(F)ccc1Nc1ncnc2sc(C(=O)NCCN3CCNCC3)nc12

IC50 ([1]; read-out: pIC50 (converted)): 50.1 nM
IC50 [2]: 31.6 nM
Structure (SMILES): CNC(=O)c1nc2c(Nc3ccc(F)cc3OC(C)C)ncnc2s1

IC50 [1]: 329 nM
Structure (SMILES): COc1cc(N=S(C)(=O)C(C)(C)C)cc2ncnc(Nc3ccc(F)cc3O[C@H]3COC[C@H]3O)c12 (stereo partly drawn)

IC50 ([1]; read-out: pIC50 (converted)): 2.51 nM
IC50 [2]: 2 nM
Structure (SMILES): CN(C)CCCNC(=O)c1nc2c(N3CCc4cc(F)ccc43)ncnc2s1

GI50 (PC-3): < 10000 nM
GI50 (MOLM-13): < 10000 nM
GI50 (A2780): < 10000 nM
GI50 (SK-OV-3): < 10000 nM
Structure (SMILES): O=C1NC2(CCCCC2)n2c1c(Cl)cc(Nc1ccncn1)c2=O

IC50 ([1]; read-out: pIC50 (converted)): 12.6 nM
IC50 [2]: 12.6 nM
Structure (SMILES): CN(C)CCCNC(=O)c1cc2ncnc(N3CCc4cc(F)ccc43)c2n1C

IC50 ([1]; read-out: pIC50 (converted)): 3.16 nM
IC50 [2]: 3.16 nM
Structure (SMILES): O=C(NCC1CCNCC1)c1nc2c(N3CCc4cc(Cl)ccc43)ncnc2s1

Ki [14]: 1320 nM
GI50 (MV4-11 [15]): 4640 nM
Ki [16]: 740 nM
Structure (SMILES): COc1ncc(C)cc1Nc1ncnc2[nH]ccc12

IC50 [25]: 147000 nM
IC50 [26]: 50000 nM
Structure (SMILES): Cc1c(C(=O)O)sc2ncnc(Nc3ccc(F)cc3OC(CF)CF)c12

IC50 [1]: 80 nM
Structure (SMILES): CO[C@@H]1COC[C@@H]1Oc1cc(F)ccc1Nc1ncnc2cc(N=S(C)(C)=O)cc(C)c12

IC50 ([1]; read-out: pIC50 (converted)): 3.16 nM
IC50 [2]: 2.51 nM
Structure (SMILES): CC1(C)CN(c2ncnc3sc(C(=O)NCC4CCNCC4)nc23)c2ccccc21

inhibition [27]: 51%
Structure (SMILES): Cc1ncc(C(=O)Nc2ccc(CN3CCN(C)CC3)c(C(F)(F)F)c2)cc1C#Cc1cnc2cccnn12
